From patent publication US12077503B2, “Substituted cyclic amides and their use as herbicides” (FMC CORPORATION, priority 2015, dated 2024)
Read-outs that look alike come from different tables or passages of the source.

Legend:
Format in all cases: in vivo
Kochia (Kochia scoparia) [1] = assay: Test A preemergence; settings: Bassia scoparia, pre-emergence, 240 h, read-out: Plant response rating, Kochia; for pest or weed control at 125 g/ha: 125 g ai/ha, preemergence, visual rating after approx. 10 d, 0 to 100 scale where 0 is no effect and 100 is complete control; for pest or weed control at 31 g/ha: Preemergence, 31 g ai/ha, 0 to 100 scale (0 no effect, 100 complete control)
Outline: (§1)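 Visual injury scores from 0, no effect, to 100, complete control, were assigned versus untreated controls roughly 10 d after treatment in the greenhouse. Test chemicals, formulated with surfactant in a non-phytotoxic solvent, were applied to planted seeds as a preemergence soil spray or postemergence to one- to two-leaf plants 2 to 10 cm tall, in loam–sand soil.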

[2] = test system: barnyardgrass (Echinochloa crus-galli); assay: Test A preemergence; settings: Echinochloa crus-galli, pre-emergence, 240 h, read-out: Plant response rating, Barnyardgrass; for pest or weed control at 125 g/ha: 125 g ai/ha, preemergence, visual rating after approx. 10 d, 0 to 100 scale where 0 is no effect and 100 is complete control; for pest or weed control at 31 g/ha: Preemergence, 31 g ai/ha, 0 to 100 scale (0 no effect, 100 complete control)
Outline: as §1

[3] = test system: giant foxtail (Setaria faberii); assay: Test A preemergence; settings: Setaria faberi, pre-emergence, 240 h, read-out: Plant response rating, Foxtail, Giant; for pest or weed control at 125 g/ha: 125 g ai/ha, preemergence, visual rating after approx. 10 d, 0 to 100 scale where 0 is no effect and 100 is complete control; for pest or weed control at 31 g/ha: Preemergence, 31 g ai/ha, 0 to 100 scale (0 no effect, 100 complete control)
Outline: as §1

[4] = test system: pigweed (Amaranthus retroflexus); assay: Test A preemergence; settings: Amaranthus retroflexus, pre-emergence, 240 h, read-out: Plant response rating, Pigweed; for pest or weed control at 125 g/ha: 125 g ai/ha, preemergence, visual rating after approx. 10 d, 0 to 100 scale where 0 is no effect and 100 is complete control; for pest or weed control at 31 g/ha: Preemergence, 31 g ai/ha, 0 to 100 scale (0 no effect, 100 complete control)
[5] = test system: ragweed (common ragweed, Ambrosia elatior); assay: Test A preemergence; settings: Ambrosia artemisiifolia, pre-emergence, 240 h, read-out: Plant response rating, Ragweed; for pest or weed control at 125 g/ha: 125 g ai/ha, preemergence, visual rating after approx. 10 d, 0 to 100 scale where 0 is no effect and 100 is complete control; for pest or weed control at 31 g/ha: Preemergence, 31 g ai/ha, 0 to 100 scale (0 no effect, 100 complete control)
Outline: as §1

[6] = test system: ryegrass, Italian (Italian ryegrass, Lolium multiflorum); assay: Test A preemergence; settings: Lolium multiflorum, pre-emergence, 240 h, read-out: Plant response rating, Ryegrass, Italian; for pest or weed control at 125 g/ha: 125 g ai/ha, preemergence, visual rating after approx. 10 d, 0 to 100 scale where 0 is no effect and 100 is complete control; for pest or weed control at 31 g/ha: Preemergence, 31 g ai/ha, 0 to 100 scale (0 no effect, 100 complete control)
Outline: as §1

[7] = test system: Galium (catchweed bedstraw, Galium aparine); assay: Test A postemergence; settings: Galium, post-emergence, 240 h; for pest or weed control at 125 g/ha: 125 g ai/ha, postemergence; for pest or weed control at 31 g/ha: Postemergence, 31 g ai/ha, visual injury after approx. 10 d, 0 to 100 scale, 0 no effect, 100 complete control
Outline: as §1

Kochia (Kochia scoparia) [8] = assay: Test A postemergence; settings: Bassia scoparia, post-emergence, 240 h; for pest or weed control at 125 g/ha: 125 g ai/ha, postemergence; for pest or weed control at 31 g/ha: Postemergence, 31 g ai/ha, visual injury after approx. 10 d, 0 to 100 scale, 0 no effect, 100 complete control
Outline: as §1

[9] = test system: barnyardgrass (Echinochloa crus-galli); assay: Test A postemergence; settings: Echinochloa crus-galli, post-emergence, 240 h; for pest or weed control at 125 g/ha: 125 g ai/ha, postemergence; for pest or weed control at 31 g/ha: Postemergence, 31 g ai/ha, visual injury after approx. 10 d, 0 to 100 scale, 0 no effect, 100 complete control
Outline: as §1

[10] = test system: blackgrass (Alopecurus myosuroides); assay: Test A postemergence; settings: Alopecurus myosuroides, post-emergence, 240 h; for pest or weed control at 125 g/ha: 125 g ai/ha, postemergence; for pest or weed control at 31 g/ha: Postemergence, 31 g ai/ha, visual injury after approx. 10 d, 0 to 100 scale, 0 no effect, 100 complete control
Outline: as §1

corn (Zea mays) = assay: Test A postemergence; settings: Zea mays, post-emergence, 240 h; for Corn plant response rating (crop injury, 0 = no effect, 100 = complete kill) at 31 g/ha: Postemergence, 31 g ai/ha, visual injury after approx. 10 d, 0 to 100 scale, 100 complete control
Outline: as §1

[11] = test system: giant foxtail (Setaria faberii); assay: Test A postemergence; settings: Setaria faberi, post-emergence, 240 h; for pest or weed control at 125 g/ha: 125 g ai/ha, postemergence; for pest or weed control at 31 g/ha: Postemergence, 31 g ai/ha, visual injury after approx. 10 d, 0 to 100 scale, 0 no effect, 100 complete control
Outline: as §1

[12] = test system: pigweed (Amaranthus retroflexus); assay: Test A postemergence; settings: Amaranthus retroflexus, post-emergence, 240 h; for pest or weed control at 125 g/ha: 125 g ai/ha, postemergence; for pest or weed control at 31 g/ha: Postemergence, 31 g ai/ha, visual injury after approx. 10 d, 0 to 100 scale, 0 no effect, 100 complete control
Outline: as §1

[13] = test system: ragweed (common ragweed, Ambrosia elatior); assay: Test A postemergence; settings: Ambrosia artemisiifolia, post-emergence, 240 h; for pest or weed control at 125 g/ha: 125 g ai/ha, postemergence; for pest or weed control at 31 g/ha: Postemergence, 31 g ai/ha, visual injury after approx. 10 d, 0 to 100 scale, 0 no effect, 100 complete control
Outline: as §1

[14] = test system: ryegrass, Italian (Italian ryegrass, Lolium multiflorum); assay: Test A postemergence; settings: Lolium multiflorum, post-emergence, 240 h; for pest or weed control at 125 g/ha: 125 g ai/ha, postemergence; for pest or weed control at 31 g/ha: Postemergence, 31 g ai/ha, visual injury after approx. 10 d, 0 to 100 scale, 0 no effect, 100 complete control
Outline: as §1

[15] = read-out: Plant response rating, Galium
[16] = read-out: Plant response rating, Kochia
[17] = read-out: Plant response rating, Barnyardgrass
[18] = read-out: Plant response rating, Blackgrass
[19] = read-out: Plant response rating, Foxtail, Giant
[20] = read-out: Plant response rating, Pigweed
[21] = read-out: Plant response rating, Ragweed
[22] = read-out: Plant response rating, Ryegrass, Italian

## Cc1cc(F)cc([C@H]2CN(C)C(=O)[C@@H]2C(=O)Nc2cccc(F)c2C#N)c1 [Compound 800]
Kochia (Kochia scoparia) [1]
  pest or weed control at 125 g/ha: 0%
  pest or weed control at 31 g/ha: 0%
[2]
  pest or weed control at 125 g/ha: 90%
  pest or weed control at 31 g/ha: 80%
[3]
  pest or weed control at 125 g/ha: 90%
  pest or weed control at 31 g/ha: 80%
[4]
  pest or weed control at 125 g/ha: 20%
  pest or weed control at 31 g/ha: 0%
[5]
  pest or weed control at 125 g/ha: 0%
  pest or weed control at 31 g/ha: 0%
[6]
  pest or weed control at 125 g/ha: 40%
  pest or weed control at 31 g/ha: 0%
[7]; visual injury after approximately 10 d, 0 to 100 scale (0 no effect, 100 complete control), read-out: Plant response rating, Galium
  pest or weed control at 125 g/ha: 30%
[7]; [15]
  pest or weed control at 31 g/ha: 0%
Kochia (Kochia scoparia) [8]; visual injury after approximately 10 d, 0 to 100 scale (0 no effect, 100 complete control), read-out: Plant response rating, Kochia
  pest or weed control at 125 g/ha: 0%
Kochia (Kochia scoparia) [8]; [16]
  pest or weed control at 31 g/ha: 0%
[9]; visual injury after approximately 10 d, 0 to 100 scale (0 no effect, 100 complete control), read-out: Plant response rating, Barnyardgrass
  pest or weed control at 125 g/ha: 80%
[9]; [17]
  pest or weed control at 31 g/ha: 80%
[10]; visual injury after approximately 10 d, 0 to 100 scale (0 no effect, 100 complete control), read-out: Plant response rating, Blackgrass
  pest or weed control at 125 g/ha: 20%
[10]; [18]
  pest or weed control at 31 g/ha: 0%
Corn (Zea mays); 125 g ai/ha, postemergence, visual injury after approximately 10 d, 0 to 100 scale (0 no effect, 100 complete control)
  Corn plant response rating (crop injury, 0 = no effect, 100 = complete kill) at 125 g/ha: 20%
Corn (Zea mays)
  Corn plant response rating (crop injury, 0 = no effect, 100 = complete kill) at 31 g/ha: 0%
[11]; visual injury after approximately 10 d, 0 to 100 scale (0 no effect, 100 complete control), read-out: Plant response rating, Foxtail, Giant
  pest or weed control at 125 g/ha: 80%
[11]; [19]
  pest or weed control at 31 g/ha: 80%
[12]; visual injury after approximately 10 d, 0 to 100 scale (0 no effect, 100 complete control), read-out: Plant response rating, Pigweed
  pest or weed control at 125 g/ha: 40%
[12]; [20]
  pest or weed control at 31 g/ha: 20%
[13]; visual injury after approximately 10 d, 0 to 100 scale (0 no effect, 100 complete control), read-out: Plant response rating, Ragweed
  pest or weed control at 125 g/ha: 0%
[13]; [21]
  pest or weed control at 31 g/ha: 0%
[14]; visual injury after approximately 10 d, 0 to 100 scale (0 no effect, 100 complete control), read-out: Plant response rating, Ryegrass, Italian
  pest or weed control at 125 g/ha: 20%
[14]; [22]
  pest or weed control at 31 g/ha: 0%

## Cc1cc(F)cc([C@H]2CN(C)C(=O)[C@@H]2C(=O)Nc2cccc(F)c2C)c1 [Compound 802]
Kochia (Kochia scoparia) [1]
  pest or weed control at 125 g/ha: 50%
  pest or weed control at 31 g/ha: 0%
[2]
  pest or weed control at 125 g/ha: 90%
  pest or weed control at 31 g/ha: 80%
[3]
  pest or weed control at 125 g/ha: 90%
  pest or weed control at 31 g/ha: 90%
[4]
  pest or weed control at 125 g/ha: 50%
  pest or weed control at 31 g/ha: 40%
[5]
  pest or weed control at 125 g/ha: 60%
  pest or weed control at 31 g/ha: 0%
[6]
  pest or weed control at 125 g/ha: 40%
  pest or weed control at 31 g/ha: 0%
[7]; visual injury rating after approximately 10 d, read-out: Galium plant response rating (0 to 100 scale, 0 no effect, 100 complete control)
  pest or weed control at 125 g/ha: 60%
[7]; [15]
  pest or weed control at 31 g/ha: 0%
Kochia (Kochia scoparia) [8]; visual injury rating after approximately 10 d, read-out: Kochia plant response rating (0 to 100 scale, 0 no effect, 100 complete control)
  pest or weed control at 125 g/ha: 40%
Kochia (Kochia scoparia) [8]; [16]
  pest or weed control at 31 g/ha: 20%
[9]; visual injury rating after approximately 10 d, read-out: Barnyardgrass plant response rating (0 to 100 scale, 0 no effect, 100 complete control)
  pest or weed control at 125 g/ha: 80%
[9]; [17]
  pest or weed control at 31 g/ha: 80%
[10]; visual injury rating after approximately 10 d, read-out: Blackgrass plant response rating (0 to 100 scale, 0 no effect, 100 complete control)
  pest or weed control at 125 g/ha: 60%
[10]; [18]
  pest or weed control at 31 g/ha: 20%
Corn (Zea mays); 125 g ai/ha, postemergence, visual injury rating after approximately 10 d, read-out: Corn plant response rating (0 to 100 scale, 0 no effect, 100 complete control)
  plant injury at 125 g/ha: 70%
Corn (Zea mays)
  Corn plant response rating (crop injury, 0 = no effect, 100 = complete kill) at 31 g/ha: 20%
[11]; visual injury rating after approximately 10 d, read-out: Foxtail, Giant plant response rating (0 to 100 scale, 0 no effect, 100 complete control)
  pest or weed control at 125 g/ha: 90%
[11]; [19]
  pest or weed control at 31 g/ha: 70%
[12]; visual injury rating after approximately 10 d, read-out: Pigweed plant response rating (0 to 100 scale, 0 no effect, 100 complete control)
  pest or weed control at 125 g/ha: 40%
[12]; [20]
  pest or weed control at 31 g/ha: 30%
[13]; visual injury rating after approximately 10 d, read-out: Ragweed plant response rating (0 to 100 scale, 0 no effect, 100 complete control)
  pest or weed control at 125 g/ha: 30%
[13]; [21]
  pest or weed control at 31 g/ha: 0%
[14]; visual injury rating after approximately 10 d, read-out: Ryegrass, Italian plant response rating (0 to 100 scale, 0 no effect, 100 complete control)
  pest or weed control at 125 g/ha: 40%
[14]; [22]
  pest or weed control at 31 g/ha: 0%
